Assay results: patent US20190071416A1, “COMPOUNDS FOR TREATMENT OF CANCER AND EPIGENETICS” (Agency For Science, Technology and Research, priority 2015, published 2019)
Values belong to the compound of their own block, whether it stands above or below them.

Target: T1, SMYD3 (Homo sapiens, UniProt Q9H7B4)
T1 sequence (Q9H7B4 1-428): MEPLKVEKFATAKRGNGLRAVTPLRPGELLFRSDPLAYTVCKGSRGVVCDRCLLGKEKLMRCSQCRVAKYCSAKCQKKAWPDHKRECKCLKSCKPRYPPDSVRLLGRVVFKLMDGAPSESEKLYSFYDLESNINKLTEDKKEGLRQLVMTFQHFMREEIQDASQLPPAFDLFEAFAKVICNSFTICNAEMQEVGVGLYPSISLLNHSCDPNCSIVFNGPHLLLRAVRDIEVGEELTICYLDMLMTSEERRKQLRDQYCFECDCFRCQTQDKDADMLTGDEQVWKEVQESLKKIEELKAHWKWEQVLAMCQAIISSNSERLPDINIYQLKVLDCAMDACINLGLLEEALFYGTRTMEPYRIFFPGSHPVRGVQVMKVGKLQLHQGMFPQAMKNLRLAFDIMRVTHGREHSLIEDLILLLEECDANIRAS
Assay: SMYD3 biochemical assay (MTase-Glo, MAP3K2 peptide substrate)
Details: Table 3; MTase assay, MAP3K2 peptide substrate; read-out: IC50
Method in brief: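 Methylation of MAP3K2 peptide (10 µM final) with SAM (1.0 µM final) by SMYD3, 30 min at room temperature. SAH formed was enzymatically converted to ATP and detected as luminescence with MTase-Glo reagents; IC50 by non-linear regression.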

SMILES: CCCOC(=O)N1CCN(C(=O)c2ccc3c(Cl)c4c(nc3c2)CCC(C(=O)OC)C4)CC1 (stereo not shown) [A029, Methyl 9-chloro-6-(4-(propoxycarbonyl)piperazine-1-carbonyl)-1,2,3,4-tetrahydroacridine-2-carboxylate]
IC50: 860 nM

SMILES: CCCOC(=O)N1CCN(C(=O)c2ccc3c(Cl)c4c(nc3c2)CC(c2ncccc2F)CC4)CC1 (stereo not shown) [A099, Propyl 4-(9-chloro-6-(3-fluoropyridin-2-yl)-5,6,7,8-tetrahydroacridine-3-carbonyl)piperazine-1-carboxylate]
IC50: 590 nM

SMILES: CCCOC(=O)N1CCN(C(=O)c2ccc3c(Cl)cc(-c4ccc5nc(C)oc5c4)nc3c2)CC1 [B212, Propyl 4-(4-chloro-2-(2-methylbenzo[d]oxazol-6-yl)quinoline-7-carbonyl)piperazine-1-carboxylate]
IC50: 240 nM

SMILES: CCCOC(=O)N1CCN(C(=O)c2ccc3c(Cl)c4c(nc3c2)CC(c2ccccc2)CC4)CC1 (stereo not shown) [A024, Propyl 4-(9-chloro-6-phenyl-5,6,7,8-tetrahydroacridine-3-carbonyl)piperazine-1-carboxylate]
IC50: 1200 nM

SMILES: CCCOC(=O)N1CCN(C(=O)c2ccc3c(Cl)c(C)c(-c4ccc(CN)cc4)nc3c2)C[C@H]1C [B122, Propyl (R)-4-(2-(4-(aminomethyl)phenyl)-4-chloro-3-methylquinoline-7-carbonyl)-2-methylpiperazine-1-carboxylate]
IC50: 70 nM

SMILES: CCCOC(=O)N1CCN(C(=O)c2ccc3c(Cl)c4c(nc3c2)CCCC4C)CC1 (stereo not shown) [A023, Propyl 4-(9-chloro-8-methyl-5,6,7,8-tetrahydroacridine-3-carbonyl)piperazine-1-carboxylate]
IC50: 5200 nM

SMILES: CCCOC(=O)N1CCN(C(=O)c2ccc3c(Cl)c4c(nc3c2)CC(c2ccc(F)cn2)CC4)C[C@@H]1C (stereo partly drawn) [A097, Propyl (2S)-4-(9-chloro-6-(5-fluoropyridin-2-yl)-5,6,7,8-tetrahydroacridine-3-carbonyl)-2-methylpiperazine-1-carboxylate]
IC50: 170 nM

SMILES: CCCOC(=O)N1CCN(C(=O)c2ccc3c(Cl)cc(C4(F)CC4)nc3c2)CC1 [B263, Propyl 4-(4-chloro-2-(1-fluorocyclopropyl)quinoline-7-carbonyl)piperazine-1-carboxylate]
IC50: 13900 nM

SMILES: CCCOC(=O)N1CCN(C(=O)c2ccc3c(Cl)c4c(nc3c2)CCCC4)CC1COC(=O)CCOC (stereo not shown) [A055, Propyl 4-(9-chloro-5,6,7,8-tetrahydroacridine-3-carbonyl)-2-(((3-methoxypropanoyl)oxy)methyl)-piperazine-1-carboxylate]
IC50: 2400 nM

SMILES: C=CCC1CCc2c(nc3cc(C(=O)N4CCN(C(=O)OCCC)CC4)ccc3c2Cl)C1 (stereo not shown) [A047, Propyl 4-(6-allyl-9-chloro-5,6,7,8-tetrahydroacridine-3-carbonyl)piperazine-1-carboxylate]
IC50: 600 nM

SMILES: CCCOC(=O)N1CCN(C(=O)c2ccc3c(Cl)c4c(nc3c2)CCCC4)CC1CC(=O)OC (stereo not shown) [A069, Propyl 4-(9-chloro-5,6,7,8-tetrahydroacridine-3-carbonyl)-2-(2-methoxy-2-oxoethyl)piperazine-1-carboxylate]
IC50: 5200 nM

SMILES: CCCOC(=O)N1CCN(C(=O)c2ccc3c(Cl)c4c(nc3c2)CCC(CN)C4)CC1 (stereo not shown) [A045, Propyl 4-(7-(aminomethyl)-9-chloro-5,6,7,8-tetrahydroacridine-3-carbonyl)piperazine-1-carboxylate]
IC50: 1200 nM

SMILES: CCCOC(=O)N1CCN(C(=O)c2ccc3c(Cl)c(C)c(-c4ccc(C(N)=O)cc4)nc3c2)C[C@H]1C [B113, Propyl (R)-4-(2-(4-carbamoylphenyl)-4-chloro-3-methylquinoline-7-carbonyl)-2-methylpiperazine-1-carboxylate]
IC50: 92 nM

SMILES: NC1(c2ccc(-c3cc(Cl)c4ccc(C(=O)N5CCN(C(=O)c6cn(C7CC7)nn6)CC5)cc4n3)cc2)CC1 [D013, (2-(4-(1-Aminocyclopropyl)phenyl)-4-chloroquinolin-7-yl)(4-(1-cyclopropyl-1H-1,2,3-triazole-4-carbonyl)piperazin-1-yl)methanone]
IC50: 78 nM

SMILES: CCCOC(=O)N1CCN(C(=O)c2ccc3c(Cl)c4c(nc3c2)CCCC4)CC1COC(C)=O (stereo not shown) [A052, Propyl 2-(acetoxymethyl)-4-(9-chloro-5,6,7,8-tetrahydroacridine-3-carbonyl)piperazine-1-carboxylate]
IC50: 1800 nM

SMILES: CCCOC(=O)N1CCN(C(=O)c2ccc3c(Cl)c4c(nc3c2)CCCC4)C(C(F)(F)F)C1 (stereo not shown) [A064, Propyl 4-(9-chloro-5,6,7,8-tetrahydroacridine-3-carbonyl)-3-(trifluoromethyl)piperazine-1-carboxylate]
IC50: 700 nM

SMILES: CCCOC(=O)N1CCN(C(=O)c2ccc3c(Cl)cc(-c4cc(F)c(CN)c(F)c4)nc3c2)CC1 [B258, Propyl 4-(2-(4-(aminomethyl)-3,5-difluorophenyl)-4-chloroquinoline-7-carbonyl)piperazine-1-carboxylate]
IC50: 850 nM

Second part, the compound after the results:

IC50: 54 nM
SMILES: CCCOC(=O)N1CCN(C(=O)c2ccc3c(Cl)cc(-c4cc[nH]c4)nc3c2)[C@@H](C)C1 [B254, Propyl (S)-4-(4-chloro-2-(1H-pyrrol-3-yl)quinoline-7-carbonyl)-3-methylpiperazine-1-carboxylate]

IC50: 150 nM
SMILES: CCCOC(=O)N1CCN(C(=O)c2ccc3c(Cl)cc(-c4cn[nH]c4)nc3c2)CC1 [B147, Propyl 4-(4-chloro-2-(1H-pyrazol-4-yl)quinoline-7-carbonyl)piperazine-1-carboxylate]

IC50: 2100 nM
SMILES: CCCOC(=O)N1CCN(C(=O)c2ccc3c(Cl)cc(-c4cccc(CC)c4)nc3c2)CC1 [B067, Propyl 4-(4-chloro-2-(3-ethylphenyl)quinoline-7-carbonyl)piperazine-1-carboxylate]

IC50: 110 nM
SMILES: CCCOC(=O)N1CCN(C(=O)c2ccc3c(Cl)cc(-c4ccc(OC)c(CN)c4)nc3c2)CC1 [B097, Propyl 4-(2-(3-(aminomethyl)-4-methoxyphenyl)-4-chloroquinoline-7-carbonyl)piperazine-1-carboxylate]

IC50: 360 nM
SMILES: CCCOC(=O)N1CCN(C(=O)c2ccc3c(Cl)cc(-c4ccc(F)c(O)c4)nc3c2)CC1 [B157, Propyl 4-(4-chloro-2-(4-fluoro-3-hydroxyphenyl)quinoline-7-carbonyl)piperazine-1-carboxylate]

IC50: 360 nM
SMILES: CCCOC(=O)N1CCN(C(=O)c2ccc3c(Cl)cc(-c4ccc(C)nc4)nc3c2)C[C@H]1C [B177, Propyl (R)-4-(4-chloro-2-(6-methylpyridin-3-yl)quinoline-7-carbonyl)-2-methylpiperazine-1-carboxylate]

IC50: 100 nM
SMILES: CCCOC(=O)N1CCN(C(=O)c2ccc3c(Cl)cc(-c4ccc5[nH]c(O)nc5c4)nc3c2)CC1 [B184, Propyl 4-(4-chloro-2-(2-hydroxy-1H-benzo[d]imidazol-5-yl)quinoline-7-carbonyl)piperazine-1-carboxylate]

IC50: 16 nM
SMILES: CCCOC(=O)N1CCN(C(=O)c2ccc3c(Cl)cc(-c4cnn(C5COC5)c4)nc3c2)C[C@H]1C [B272, Propyl (R)-4-(4-chloro-2-(1-(oxetan-3-yl)-1H-pyrazol-4-yl)quinoline-7-carbonyl)-2-methylpiperazine-1-carboxylate]

IC50: 21 nM
SMILES: CCCOC(=O)N1CCN(C(=O)c2ccc3c(Cl)cc(-c4ccc5nn(C)cc5c4)nc3c2)CC1 [B127, Propyl 4-(4-chloro-2-(2-methyl-2H-indazol-5-yl)quinoline-7-carbonyl)piperazine-1-carboxylate]

IC50: 140 nM
SMILES: CCCOC(=O)N1CCN(C(=O)c2ccc3c(Cl)cc(-c4ccc(O)c(CO)c4)nc3c2)C[C@@H]1C [B182, Propyl (S)-4-(4-chloro-2-(4-hydroxy-3-(hydroxymethyl)phenyl)quinoline-7-carbonyl)-2-methylpiperazine-1-carboxylate]

IC50: 43 nM
SMILES: CCCOC(=O)N1CCN(C(=O)c2ccc3c(Cl)cc(-c4cc[nH]c4)nc3c2)C[C@H]1C [B251, Propyl (R)-4-(4-chloro-2-(1H-pyrrol-3-yl)quinoline-7-carbonyl)-2-methylpiperazine-1-carboxylate]

IC50: 560 nM
SMILES: CCCOC(=O)N1CCN(C(=O)c2ccc3c(Cl)cc(-c4ccc(F)cc4)nc3c2)CC1 [B065, Propyl 4-(4-chloro-2-(4-fluorophenyl)quinoline-7-carbonyl)piperazine-1-carboxylate]

IC50: 190 nM
SMILES: CCCOC(=O)N1CCN(C(=O)c2ccc3c(Cl)cc(-c4cc[nH]c4)nc3c2)CC1 [B209, Propyl 4-(4-chloro-2-(1H-pyrrol-3-yl)quinoline-7-carbonyl)piperazine-1-carboxylate]

IC50: 65 nM
SMILES: CCCOC(=O)N1CCN(C(=O)c2ccc3c(Cl)cc(-c4ccc(-n5ccnc5)cc4)nc3c2)C[C@H]1C [B089, Propyl (R)-4-(2-(4-(1H-imidazol-1-yl)phenyl)-4-chloroquinoline-7-carbonyl)-2-methylpiperazine-1-carboxylate]
